The results in this text go back to US20260027214A1, “PHARMACEUTICAL COMPOSITION FOR TREATING OR PREVENTING INFLAMMATION CAUSED BY ACANTHAMOEBA” (priority 2022, published 2026).

Series [1] has as its system Acanthamoeba polyphaga. Kind of series: Adhesion test: Acanthamoeba adhered to polypropylene test pieces after 60 min immersion. Format: cell-based. The protocol: (§1) An Acanthamoeba solution containing 1×10^5 Acanthamoeba per mL of solution was prepared by dispersing Acanthamoeba (Acanthamoeba polyphaga, obtained from American Type Culture Collection (ATCC), 30872™) in phosphate-buffered saline as solvent.
(§2) The polypropylene test pieces used in the adhesion test described below were polypropylene from Johoku Co., Ltd., product number: PP_A3, cut to dimensions of 15 mm length×15 mm width×0.25 mm thickness from original dimensions of 320 mm length×440 mm width×0.25 mm thickness for each experiment.
(§3) To verify the anti-adhesive properties and antiprotozoal activity of the lysozyme-chitosan complex (LYZOX (registered trademark)), adhesion tests and cell death tests were conducted.
(§4) Specifically, the above-mentioned Acanthamoeba solution was added to the above-mentioned lysozyme-chitosan complex (LYZOX (registered trademark)) solution to prepare mixed solutions containing 0.1 μg, 1 μg, 10 μg, 100 μg, and 1000 μg of lysozyme-chitosan complex per 1 mL of mixed solution. Separately, a control solution with 0 μg/mL concentration containing no lysozyme-chitosan complex was prepared. The same sterilized water used in preparing the lysozyme-chitosan complex was used as dilution liquid for concentration adjustment. All six solutions contained 1×10^5 Acanthamoeba per 1 mL of solution.
(§5) The above-mentioned polypropylene test pieces were immersed in the prepared mixed solutions and left standing; after 60 minutes of immersion, the test pieces were removed from the mixed solutions, washed with phosphate-buffered saline (PBS, obtained from FUJIFILM Wako Pure Chemical Corporation, product number: 166-23555), and dried. The surface of the obtained test pieces was observed under a biological microscope (obtained from Nikon, product number: ECLIPSE E-200), and Acanthamoeba adhered within a 5×5 mm observation area on the test piece surface were counted. Subsequently, trypan blue was applied to the observation area, staining dead Acanthamoeba, and the number of dead Acanthamoeba was counted.
(§6) Acanthamoeba were counted and the total number of adhered Acanthamoeba, number of dead Acanthamoeba, and Acanthamoeba mortality rate were measured in the same manner as Experimental Example 1, except that the mixture solution of lysozyme and chitosan (Table 2), lysozyme alone (Table 3), and chitosan alone (Table 4) described above were used instead of the lysozyme-chitosan complex (LYZOX (registered trademark)) solution of Experimental Example 1.

Series [2] concerns Acanthamoeba polyphaga. The series is described as follows: Cell death test: trypan blue staining of adhered Acanthamoeba. Particulars: for Acanthamoeba inhibition effects (antiprotozoal effects): in words, compared with complex at 100 μg/mL and 1000 μg/mL; for Acanthamoeba mortality rate: 60 min immersion, 1×10^5 Acanthamoeba/mL. Format: cell-based. The method, then: as §1, §2, §3, §4, §5, §6

Take “Lysozyme: egg white lysozyme with molecular weight of approximately 14300 (Biocon (Japan) Ltd.)”: the “Total number of adhered Acanthamoeba” value in the series on Acanthamoeba polyphaga [1] (0.05 μg/mL, 1×10^5 Acanthamoeba/mL) was 119 count/mm^2; in the series on Acanthamoeba polyphaga [1] (0.5 μg/mL, 1×10^5 Acanthamoeba/mL), 94.2 count/mm^2; in the series on Acanthamoeba polyphaga [1] (5 μg/mL, 1×10^5 Acanthamoeba/mL), 87.2 count/mm^2; with Acanthamoeba polyphaga [1] (50 μg/mL, 1×10^5 Acanthamoeba/mL) it was 67.8 count/mm^2; in the series on Acanthamoeba polyphaga [1] (500 μg/mL, 1×10^5 Acanthamoeba/mL), 42.1 count/mm^2. Also, the “Acanthamoeba inhibition effects (antiprotozoal effects)” value with Acanthamoeba polyphaga [2] was “incomplete”.

poly-β1→4-glucosamine [Chitosan]: the “Total number of adhered Acanthamoeba” value worked out at 108 count/mm2 in the series with Acanthamoeba polyphaga [1] (0.05 μg/mL, 1×10^5 Acanthamoeba/mL (Table 4)); 89.2 count/mm2 with Acanthamoeba polyphaga [1] (0.5 μg/mL, 1×10^5 Acanthamoeba/mL (Table 4)); 82.1 count/mm2 in the series on Acanthamoeba polyphaga [1] (5 μg/mL, 1×10^5 Acanthamoeba/mL (Table 4)); 65.3 count/mm2 in the series with Acanthamoeba polyphaga [1] (50 μg/mL, 1×10^5 Acanthamoeba/mL (Table 4)); 49.7 count/mm2 with Acanthamoeba polyphaga [1] (500 μg/mL, 1×10^5 Acanthamoeba/mL (Table 4)). Moreover, the Acanthamoeba mortality rate in the series with Acanthamoeba polyphaga [2] (0.05 μg/mL) came out at 3.5%; with Acanthamoeba polyphaga [2] (0.5 μg/mL), 3.8%; in the series on Acanthamoeba polyphaga [2] (5 μg/mL) it was 3.9%; in the series with Acanthamoeba polyphaga [2] (50 μg/mL), 7.9%; in the series with Acanthamoeba polyphaga [2] (500 μg/mL), 37.4%. Besides, the “Acanthamoeba inhibition effects (antiprotozoal effects)” value in the series with Acanthamoeba polyphaga [2] is reported as “incomplete”.
